# Reference: patent US20080182908A1, “PHARMACEUTICAL COMPOSITIONS COMPRISING MEMANTINE” (priority 2007, published 2008)
# Where a name gives a salt, the structure may show the parent alone.
# Tests used:
# [1] = tested on: NMDA (N-methyl-D-aspartate) receptor; settings: noncompetitive NMDA receptor antagonist; cited from earlier work
# [2] = cited from earlier work
# [3] = Physicochemical properties of the active ingredient (density, flow, particle size distribution); settings: active ingredient used in Example 1
# Text: The different physicochemical properties of the active ingredient as well as excipients are to be considered, as these properties affect processing and the formulation properties of the compositions. Various physicochemical properties include, but are not limited to, particle size of the active ingredient, density (including bulk density and tapped density), compressibility index, Hausner's ratio, angle of repose, etc. The percentages of particles with different sizes that exist in a total powder, is the particle size distribution. It is represented in certain ways. Particle size is the maximun dimension of a particle, frequently expressed in micrometers. Particle size distributions can be expressed in terms of D10, D50, D90 and D[4,3]. The D10, D50 and D90 represent the 10th, median or the 50th percentile, and the 90th percentile of the particle size distribution, respectively, as measured by volume. That is, the D10, D50, D90 are values of the distribution such that 10%, 50%, and 90% of the particles have a size of this value or less […]. D50 also known as median diameter of particles. It is one of the important parameters representing characteristics of particle of powder. For a sample, if D50=5 μm, it means that 50% of the particles are smaller than 5 μm. Similarly, if D10=5 μm, 10% of the particles are less than or equal to 5 μm and if D90=5 μm, 90% of the particles have sizes less than or equal to 5 μm. D[4,3] is the volume moment mean of the particles or the volume weighted particle size.
Bulk density [3] [g/mL],Compressibility index [3],Hauser's ratio [3],Particle size distribution: D(10) [3] [μm],Particle size distribution: D(50) [3] [μm],Particle size distribution: D(90) [3] [μm],Tapped density [3] [g/mL],Structure (SMILES),Affinity for the receptor [1],Blocking/unblocking kinetics [1],Solubility in water [2]
,,,,,,,"C[C@]12CC3C[C@](C)(C1)C[C@@](N)(C3)C2 [Memantine, 1-amino-3,5-dimethyladamantane]",low to moderate affinity,rapid blocking/unblocking kinetics,
0.317,31.83,1.467,10.744,60.545,210.482,0.465,CC12CC3CC(C)(C1)CC(N)(C3)C2 [memantine hydrochloride],,,highly soluble in water
